Structures are written as SMILES. Read-outs that look alike come from different tables or passages of the source.

One data set has as its system primary rat hepatocytes. The experiment in a line: In vitro phospholipidosis protocol (DHPE-TRITC accumulation). It is filed as cell-based, Han Wistar rats. The method, then: Assessment of a compounds potential to induce phospholipidosis was determined by an in vitro fluorescent assay which reports the accumulation of phospholipids in primary rat hepatocytes. Hepatocytes were isolated from Han Wistar rats by a 2-stage collagenase digest method. The hepatocytes were then plated on collagen coated 96-well plates in William's E medium. The cells were left to adhere for 1 hour then the media was replaced with a solution of 250 μg.ml^−1 collagen in Hepatozyme cell culture medium.
Cells were then cultured for 48 hours with the medium being changed at 24 hours. At 48 hours post isolation the medium was changed to Hepatozyme supplemented with the fluorescent phospholipid N-(6-tetramethylrhodaminethiocarbamoyl)-1,2-dihexadecanoyl-sn-glycero-3-phosphoethanolamine (DHPE-TRITC) (5 μg.ml^−1). At this time, test compounds were added to the hepatocytes at a range of concentrations in a serial dilution with a final concentration of 0.4% dimethylsulfoxide (used as solvent for test compounds).
The cells were incubated for a further 24 hours and then fixed by addition of a phosphate buffered saline (PBS) solution containing the nuclear stain Hoechst 33342 (final concentration 2 μM) and paraformaldehyde solution (final concentration 4%). The plates were kept at room temperature for 30 minutes then washed three times in PBS solution.
Images of the hepatocytes were then acquired using an automated microscope platform (GE In Cell Analyser 3000). Image analysis algorithms were then used to assess cell viability and the accumulation of the DHPE-TRITC label within viable hepatocytes. The quantified accumulation observed with test compounds was then normalised to a range of 0, representing the accumulation observed in cells exposed to vehicle only, and 1, representing cells exposed to 10 μM amiodarone. The maximum accumulation across the dose response of the test compound, where cell viability is >50%, is reported, as is the dose at which this maximum was observed. The lowest dose that caused >50% cell toxicity is also reported. […]

For the next data set, the target named is T1, P2X7 receptor (Homo sapiens, UniProt Q99572).
T1 construct: 200 μl of a suspension of THP-1 cells; endogenous in cells; host or cells: THP-1 cells
T1 sequence (Q99572 1-595): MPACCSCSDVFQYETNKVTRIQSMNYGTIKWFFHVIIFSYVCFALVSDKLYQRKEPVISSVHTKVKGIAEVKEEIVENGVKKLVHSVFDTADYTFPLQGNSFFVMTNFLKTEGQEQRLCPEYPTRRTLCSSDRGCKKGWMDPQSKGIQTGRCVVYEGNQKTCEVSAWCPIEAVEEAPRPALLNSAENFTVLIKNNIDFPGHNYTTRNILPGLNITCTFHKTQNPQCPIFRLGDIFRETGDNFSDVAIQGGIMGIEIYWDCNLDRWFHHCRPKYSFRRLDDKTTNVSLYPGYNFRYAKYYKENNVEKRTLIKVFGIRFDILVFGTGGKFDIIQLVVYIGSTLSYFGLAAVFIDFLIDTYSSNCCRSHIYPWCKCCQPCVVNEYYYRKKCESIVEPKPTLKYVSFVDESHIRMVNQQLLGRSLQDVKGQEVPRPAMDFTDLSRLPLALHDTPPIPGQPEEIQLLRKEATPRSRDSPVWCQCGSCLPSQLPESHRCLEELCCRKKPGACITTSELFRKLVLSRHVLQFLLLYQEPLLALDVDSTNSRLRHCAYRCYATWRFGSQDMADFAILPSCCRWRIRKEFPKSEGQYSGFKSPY
As to the kind of experiment: P2X7 assay (bbATP-induced ethidium bromide fluorescence in THP-1 cells). It is filed as cell-based. An excerpt:
Certain compounds such as benzoylbenzoyl adenosine triphosphate (bbATP) are known to be agonists of the P2X7 receptor, effecting the formation of pores in the plasma membrane (Drug Development Research (1996), 37(3), p. 126). Consequently, when the receptor is activated using bbATP in the presence of ethidium bromide (a fluorescent DNA probe), an increase in the fluorescence of intracellular DNA-bound ethidium bromide is observed. The increase in fluorescence can be used as a measure of P2X7 receptor activation and therefore to quantify the effect of a compound on the P2X7 receptor.
In this manner, the compound of the invention was tested for antagonist activity at the P2X7 receptor. Thus, the test was performed in 96-well flat bottomed microtitre plates, the wells being filled with 250 μl of test solution comprising 200 μl of a suspension of THP-1 cells (2.5×10^6 cells/ml) containing 10^−4M ethidium bromide, 25 μl of a high potassium buffer solution containing 10^−5M bbATP, and 25 μl of the high potassium buffer solution containing concentrations of test compound typically from 30 μM-0.001 μM. The plate was covered with a plastic sheet and incubated at 37° C. for one hour. The plate was then read in a Perkin-Elmer fluorescent plate reader, excitation 520 nm, emission 595 nm, slit widths: Ex 15 nm, Em 20 nm. […]

Data set [1] in a line: Plasma protein binding (equilibrium dialysis). Type of data set: in vitro ADME. The following applies: pH 7.4; human plasma, 37° C., 5 μM compound; read-out: human plasma protein binding (% bound) (converted). Here is the method:
The extent of plasma protein binding was determined via equilibrium dialysis of a compound between human plasma and aqueous buffer at 37° C., and determination of the concentrations of compound in the plasma and buffer by HPLC-MS/MS.
Dialysis cells (molecular weight cut-off 5000) were prepared by rinsing with water followed by soaking in the dialysis buffer for a minimum of 1 hour. The dialysis buffer was isotonic buffered saline pH 7.4. Stock solutions of compound in dimethylsulfoxide were prepared at a concentration of 0.5 mM.
The stock DMSO solution of compound was added to the plasma at a ratio of 10 μl of DMSO to each ml of plasma. This gave a 1% DMSO in plasma solution with each compound at a concentration of 5 μM.
Dialysis cells were then prepared and one half of the cell filled with 750 μl of dialysis buffer and the other half of the cell with 750 μl of plasma solution of compound. […]
The samples were then analysed using HPLC-MS/MS. […]
The concentration of compound in the samples were determined using MassLynx version 4.1 software (produced by Waters/Micromass) that automatically calculated a calibration curve and interpolated the concentration of compound in the analytes. Plasma protein binding was determined from the measured concentration as the percentage of compound bound in plasma (% bound) using the following equation;
(In general: In equilibrium dialysis only unbound substance equilibrates across the membrane.)

Another data set addresses T2, hERG (Homo sapiens, UniProt Q12809).
T2 construct: expressed in transfected cells; host or cells: HEK (human embryonic kidney) cells, membranes
The experiment in a line: hERG binding protocol (radioligand competition, HEK cell membranes expressing hERG). The following applies: human, HEK cell membranes expressing hERG, pH 7.4; highest concentration tested. The method, then:
(§1) The hERG assay was performed according to the procedure described in WO2005/037052. The affinity (pIC50) of compounds for the ion channel subunit encoded by the human ether-a-go-go-related gene (hERG) gene was determined by competition binding of radioligand 3,7-Bis[2-(4-nitro[3,5-^3H]phenyl)ethyl]-3,7-diazabicyclo[3.3.1]nonane to HEK (human embryonic kidney) cell membranes expressing hERG, in a filter wash format.
(§2) Membranes were incubated for 3 hours at room temperature with serial dilutions of the test compounds, radioligand 3,7-Bis[2-(4-nitro[3, 5-3H]phenyl)ethyl]-3,7-diazabicyclo[3.3.1]nonane at 1 nM final concentration, and assay buffer (10 mM HEPES, 130 mM NaCl, 5 mM KCl, 1 mM EGTA, 0.8 mM MgCl2, pH 7.4). The assay was conducted in a final volume of 200 μL, in the presence of 1% (v/v) dimethyl sulphoxide. Non-specific binding was determined by measuring the binding of 3,7-Bis[2-(4-nitro[3,5-^3H]phenyl)ethyl]-3,7-diazabicyclo[3.3.1]nonane in the presence of 10 μM astemizole. During this incubation GF/B filter plates were immersed in coating solution 0.3% (v/v) Polyethylenimine and 0.2% (w/v) BSA). Following incubation assay plates were harvested onto precoated GF/B filter plates using a Tomtec harvester.
(§3) The pIC50, defined as the negative logarithm of the concentration of compound required for 50% reduction in 3,7-Bis[2-(4-nitro[3,5-^3H]phenyl)ethyl]-3,7-diazabicyclo[3.3.1]nonane binding, was determined. A ‘less than’ FIGURE indicates <50% inhibition at the quoted concentration, this being the highest concentration tested.

Data set [2] addresses T3, ion channel subunit encoded by the human ether-a-go-go-related gene (hERG) (Homo sapiens, UniProt Q12809).
T3 construct: expressed in transfected cells; host or cells: HEK (human embryonic kidney) cells, membranes
The data set is described as above. The settings on record: for P2X7:hERG Ratio: ratio of P2X7:hERG affinity. The method, then: as §1, §2, §3
For orientation: The hERG channel carries a current that helps repolarise heart muscle cells.

The next data set in a line: Bioavailability - Rat PK. Type of data set: in vivo, male Sprague Dawley rats. The settings on record: male, Sprague Dawley, plasma, oral 5 mg/kg vs IV 3 mg/kg. The method, then: Pharmacokinetic parameters and concepts are used in DMPK to describe the fate of a compound in the body. The distribution and excretion of a compound are reflected in the plasma concentration-time profile. By appropriate dosing, sampling and analysis key as parameters (clearance, volume, half-life, bioavailability etc.) can be determined.
Test compounds were typically dosed intravenously to the right lateral tail vein of male Sprague Dawley rats at a dose level of 3 mg/kg (1 ml/kg) in DMA:water (40:60 v/v). Rats were dosed orally at a dose level of 5 mg/kg (2 ml/kg) in 0.5% hydroxypropylmethylcellulose (HPMC, w/v)/0.1% Tween 80 (v/v) in water). […]
To determine the plasma levels of test compound, 50 μl of methanol was added to 50 μl of each of the test samples, whilst 40 μl of methanol was added to the 50 μl aliquots of control plasma containing 10 μl spikes of authentic standard used to create a calibration line and QCs. […] The resultant supernatants were analysed by HPLC-MSMS after an appropriate, selective and sensitive method had been created by optimizing both cone voltage and collision energy.
Pharmacokinetic parameters were derived from concentration-time using non-compartmental analysis in WinNonLin®. Bioavailability was calculated using the following equation F=AUCPO*DoseIV/AUCIV*DosePO.

T3 sequence (Q12809 whole entry): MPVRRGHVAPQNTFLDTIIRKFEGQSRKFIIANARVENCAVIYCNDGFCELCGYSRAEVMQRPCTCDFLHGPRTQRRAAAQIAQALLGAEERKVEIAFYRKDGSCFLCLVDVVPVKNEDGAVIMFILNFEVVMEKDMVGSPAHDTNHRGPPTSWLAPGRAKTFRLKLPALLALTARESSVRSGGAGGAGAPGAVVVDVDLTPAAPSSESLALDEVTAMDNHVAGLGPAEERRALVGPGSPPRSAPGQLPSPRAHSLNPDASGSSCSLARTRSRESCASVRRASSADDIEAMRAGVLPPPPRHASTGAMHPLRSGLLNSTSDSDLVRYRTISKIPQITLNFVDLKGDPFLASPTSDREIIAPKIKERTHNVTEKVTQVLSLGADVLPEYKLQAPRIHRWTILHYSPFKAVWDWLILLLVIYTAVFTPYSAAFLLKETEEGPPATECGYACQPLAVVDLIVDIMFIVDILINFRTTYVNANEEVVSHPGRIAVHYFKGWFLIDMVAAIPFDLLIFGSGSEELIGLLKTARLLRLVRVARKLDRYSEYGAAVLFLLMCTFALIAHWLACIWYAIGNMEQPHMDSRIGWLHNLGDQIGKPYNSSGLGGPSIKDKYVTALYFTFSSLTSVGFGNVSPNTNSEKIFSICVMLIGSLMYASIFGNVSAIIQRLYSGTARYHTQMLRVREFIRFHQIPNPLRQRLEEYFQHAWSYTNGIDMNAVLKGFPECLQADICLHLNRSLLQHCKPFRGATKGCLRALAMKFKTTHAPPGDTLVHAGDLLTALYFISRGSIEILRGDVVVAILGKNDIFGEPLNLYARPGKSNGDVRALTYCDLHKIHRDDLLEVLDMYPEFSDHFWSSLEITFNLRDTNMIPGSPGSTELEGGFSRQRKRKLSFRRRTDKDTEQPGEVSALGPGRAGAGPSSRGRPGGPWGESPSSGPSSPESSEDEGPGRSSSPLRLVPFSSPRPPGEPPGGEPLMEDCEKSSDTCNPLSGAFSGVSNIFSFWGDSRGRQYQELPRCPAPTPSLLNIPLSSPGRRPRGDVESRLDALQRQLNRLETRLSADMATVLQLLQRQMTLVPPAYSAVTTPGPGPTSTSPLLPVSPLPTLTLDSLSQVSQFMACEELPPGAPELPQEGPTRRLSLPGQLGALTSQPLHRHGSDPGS
T2 sequence (Q12809 whole entry): as above

Take `O=C(NCC1(O)CCCCCC1)c1c(Cl)ccc2nc(N3CC[C@H](NCCO)C3)ccc12` [Example 1, 6-Chloro-N-[(1-hydroxycycloheptyl)methyl]-2-{(3S)-3-[(2-hydroxyethyl)amino]-pyrrolidin-1-yl}quinoline-5-carboxamide]: the melting point (commonly the temperature, or range, at which the solid turns liquid) lay in the range of 138 to 140 °C. In addition, in the data set with primary rat hepatocytes (dose at which maximum accumulation was observed), the maximum accumulation concentration stood at 71 µM. The molecule also gave a minimum toxic concentration in the data set with primary rat hepatocytes (lowest dose that caused >50% cell toxicity) of 198 µM. In the data set with primary rat hepatocytes (relative to 10 μM amiodarone control (=1), vehicle = 0, cell viability >50%), the “maximum accumulation (phospholipidosis)” value was found to be 0.9. For the same molecule, the IC50 on P2X7 receptor (10^-5M bbATP, antagonist activity, read-out: P2X7 pIC50 (converted)) is 3.98 nM. For the same molecule, the IC50 at P2X7 receptor (bbATP, read-out: P2X7 IC50) was at most 5 nM. In addition, the fraction unbound at 5 µM in data set [1] was 0.3. The inhibition (commonly how much of the control response was suppressed) at 3 h at hERG was below 50%. In data set [2] (radioligand competition binding), this molecule gave an IC50 above 100000 nM. Further, the “P2X7:hERG Ratio” value in data set [2] is given as >20,000. Further, the “P2X7:hERG Ratio” value in data set [2] (listed as compound according to the present invention) was > 20,000. Also, the bioavailability – broadly, the share of a dose that reaches the circulation, judged against a reference dose that is usually intravenous – in “Bioavailability - Rat PK” was determined as 14%.

The values are drawn from patent US8106073B2, “Quinoline derivatives 057” (AstraZeneca AB, priority 2007, dated 2012).
